Source: US8828682B2, “Methods and articles for detecting hemolytic microorganisms” (priority 2008, dated 2014)
Like-named read-outs stand apart in the source and are kept apart here.

Assays:
[1] = test system: methicillin-resistant S. aureus (strain 565, clinical isolate); format: cell-based, Staphylococcus aureus; details: 35° C., 10% sheep blood in PBS
Description: (§1) Antibiotic stock solutions (3 mg/mL and 4 mg/mL) were individually prepared in DI water. The solutions were filter-sterilized. The antibiotics included cefoxitin, cefazolin, and cefuroxime. The antibiotics were diluted 1:1000 into PBS/sheep blood aliquots to achieve final antibiotic concentrations of 3 μg/mL and 4 μg/mL, respectively.
(§2) The bacterial suspensions were subjected to two serial 1:100 dilutions in sterile PBS. The diluted suspensions were then further subjected to a 1:100 dilution into each of the respective PBS/sheep blood mixtures containing an antibiotic. One milliliter of each final suspension; containing sheep blood, microorganisms, and an antibiotic in PBS; was into a PAC plate as described above. The plates were incubated at 35° C. for 48 hours. Each plate was checked for colony growth and hemolytic zone after 24 and 48 hours of incubation.

[2] = test system: methicillin-resistant S. epidermidis (strain 497, clinical isolate); assay: Growth and hemolysis in PAC thin film culture plates with antibiotic in PBS/10% sheep blood diluent; format: cell-based, Staphylococcus epidermidis; details: 35° C., 10% sheep blood in PBS
Description: as §1, §2

CO/N=C(\C(=O)N[C@@H]1C(=O)N2C(C(=O)O)=C(COC(N)=O)CS[C@H]12)c1ccco1 [Cefu, cefuroxime]
+/+: Growth ([1]; antibiotic 3 μg/mL, 24 hours) | Hemolysis ([1]; antibiotic 3 μg/mL, 24 hours) | Growth ([1]; antibiotic 3 μg/mL, 48 hours) | Hemolysis ([1]; antibiotic 3 μg/mL, 48 hours) | Growth ([1]; antibiotic 4 μg/mL, 24 hours) | Hemolysis ([1]; antibiotic 4 μg/mL, 24 hours) | Growth ([1]; antibiotic 4 μg/mL, 48 hours) | Hemolysis ([1]; antibiotic 4 μg/mL, 48 hours) | Growth ([2]; antibiotic 3 μg/mL, 24 hours) | Growth ([2]; antibiotic 3 μg/mL, 48 hours) | Growth ([2]; antibiotic 4 μg/mL, 24 hours) | Growth ([2]; antibiotic 4 μg/mL, 48 hours)

CO[C@@]1(NC(=O)Cc2cccs2)C(=O)N2C(C(=O)O)=C(COC(N)=O)CS[C@@H]21 [Cefo, cefoxitin]
+/+: Growth ([1]; antibiotic 3 μg/mL, 24 hours) | Hemolysis ([1]; antibiotic 3 μg/mL, 24 hours) | Growth ([1]; antibiotic 3 μg/mL, 48 hours) | Hemolysis ([1]; antibiotic 3 μg/mL, 48 hours) | Growth ([1]; antibiotic 4 μg/mL, 24 hours) | Hemolysis ([1]; antibiotic 4 μg/mL, 24 hours) | Growth ([1]; antibiotic 4 μg/mL, 48 hours) | Hemolysis ([1]; antibiotic 4 μg/mL, 48 hours) | Growth ([2]; antibiotic 3 μg/mL, 24 hours) | Growth ([2]; antibiotic 3 μg/mL, 48 hours) | Growth ([2]; antibiotic 4 μg/mL, 24 hours) | Growth ([2]; antibiotic 4 μg/mL, 48 hours)
